In data set [1] the test system is rat carotid artery balloon injury model. In words: Inhibition of late neointimal lesion formation in the 28 day rat carotid artery balloon injury model. In kind it is in vivo. The note with it: for percent inhibition of neointimal lesion formation: oral, 28 days post-balloon injury. As for the experimental part: A1. Inhibition of Late Neointimal Lesion Formation in the 28 Day Rat Carotid Artery Balloon Injury Model
Compounds of formula I are tested in the following rat model.
Rats are dosed orally with placebo or a compound of formula I. Daily dosing starts 3 days prior to surgery and continues for 31 days. Rat carotid arteries are balloon injured using a method described by Clowes et al. Lab. Invest. 1983; 49; 208-215. Following sacrifice at 28 days post-balloon injury, carotid arteries are removed and processed for histologic and morphometric evaluation. […] For example for 40-O-(2-hydroxyethyl)-rapamycin administered at 0.5, 1.0, and 2.0 mg/kg, the percent inhibition is similar at all three doses: inhibition is 31% at the lowest dose (0.5 mg/kg) and 39% at the highest dose (2.0 mg/kg). Compounds of formula I, e.g. 40-O-(2-hydroxyethyl)-rapamycin, have the beneficial effect to inhibit lesions at 4 weeks post-ballooning.

The subject of data set [2] is New Zealand White rabbit iliac arteries. In words: Inhibition of restenosis at 28 days in the rabbit iliac stent model. In kind it is in vivo. As to the method: A.2 Inhibition of Restenosis at 28 Days in the Rabbit Iliac Stent Model
A combined angioplasty and stenting procedure is performed in New Zealand White rabbit iliac arteries. Iliac artery balloon injury is performed by inflating a 3.0×9.0 mm angioplasty balloon in the mid-portion of the artery followed by “pull-back” of the catheter for 1 balloon length. Balloon injury is repeated 2 times, and a 3.0×12 mm stent is deployed at 6 atm for 30 seconds in the iliac artery. Balloon injury and stent placement is then performed on the contralateral iliac artery in the same manner. A post-stent deployment angiogram is performed. All animals receive oral aspirin 40 mg/day daily as anti-platelet therapy and are fed standard low-cholesterol rabbit chow. Twenty-eight days after stenting, animals are anesthetized and euthanized and the arterial tree is perfused at 100 mmHg with lactated Ringer's for several minutes, then perfused with 10% formalin at 100 mmHg for 15 minutes. The vascular section between the distal aorta and the proximal femoral arteries is excised and cleaned of periadventitial tissue. The stented section of artery is embedded in plastic and sections are taken from the proximal, middle, and distal portions of each stent. All sections are stained with hematoxylin-eosin and Movat pentachrome stains. Computerized planimetry is performed to determine the area of the internal elastic lamina (IEL), external elastic lamina (EEL) and lumen. The neointima and neointimal thickness is measured both at and between the stent struts. The vessel area is measured as the area within the EEL. Data are expressed as mean ±SEM. Statistical analysis of the histologic data is accomplished using analysis of variance (ANOVA) due to the fact that two stented arteries are measured per animal with a mean generated per animal. A P<0.05 is considered statistically significant.
A compound of formula I, e.g. 40-O-(2-hydroxyethyl)-rapamycin, is administered orally by gavage at a loading dose of 1.5 mg/kg one day prior to stenting, then dosed at 0.75 mg/kg/day from the day of stenting until day 27 post-stenting. In this model, the treatment with the compounds of formula I results in a marked reduction in the extent of restenotic lesion formation: for example, the treatment with 40-O-(2-hydroxyethyl)-rapamycin produces a significant (P<0.03) reduction in neointimal thickness (40% reduction), neointimal area (24% reduction), and percent arterial stenosis (26% reduction) with a significant 32% increase in lumen area. There is extensive neointimal formation in placebo-treated animals at 28 days, with the lesions consisting of abundant smooth muscle cells in proteoglycan/collagen matrix and apparent full endothelial healing.

Data set [3] concerns ballooned carotid of Sprague Dawley rats. Put plainly: Inhibition of restenosis at 14 days in the rat carotid stent model, perivascular local delivery. In kind it is in vivo. The following applies: local perivascular administration, 10 to 200 μg/day. As for the experimental part: A.3 Inhibition of Restenosis at 14 Days in the Rat Carotid Stent Model
Male Sprague Dawley rats weighing […] are housed individually and allowed to acclimate prior to surgery. All animals receive standard rat chow and water ad libitum. Group size is 12 animals per group.
The drug(s) administration is perivascular. A segment of ballooned carotid is encircled with a 1 cm length of silastic tubing (0.25 inch inside diameter, 0.47 inch outside diameter) to which is attached a catheter which feeds into an osmotic pump containing either compound or vehicle. This delivery system provides continuous, local delivery to the adventitia of the wrapped portion of vessel. Local drug(s) administration ranges between 5 μg and 10 mg, locally per day, depending on the solubility characteristics of the individual compounds. […]
Animals are killed at 14 days post-balloon injury. […] Animals are killed by administration of an overdose of ketamine and rompun, the osmotic pumps are recovered and the volume of remaining content is recorded to ensure that pump failure has not occurred.
Carotid, arteries are excised and immersion fixed, then transferred to Ringer's solution. […] The intimal lesion area and the medial area are determined by measurement of the internal elastic lamina, the external elastic lamina and the vessel/lumen interface.

For another data set, the system named is dialysis patients. Put plainly: Prevention or reduction of vascular access dysfunction after insertion of an indwelling catheter in dialysis patients. In kind it is in vivo, human. The note with it: daily dose 0.75 to 20 mg, 3 month treatment, observation period 6 months. As for the experimental part:
A5. Prevention or Reduction of Vascular Access Dysfunction in Association with the Insertion of an Indwelling Catheter into the Vein of a Patient
One hundred fifty prospective dialysis patients, who undergo successful insertion of an indwelling, large bore catheter, into a vein are selected for the study. […] In addition, patients may also be given a calcium antagonist, nitrates and/or anti-platelet agents. These drugs are administered for 3 consecutive months following catheter insertion.

Data set [4] is described as follows: Release of drug from coated stents in PBS or PEG/water. In kind it is physicochemical. The following applies: PBS pH 7.4 or PEG 400/water 40/60 v/v, 37° C., stable = less than 10% of variation of the drug release. As to the method:
Four 2 cm pieces of coated stents as described above are placed into 100 ml of phosphate buffer solution (PBS) having a pH of 7.4. Another 4 pieces from each series are placed into 100 ml polyethylene glycol (PEG)/water solution (40/60 v/v, MW of PEG=400). The stent pieces are incubated at 37° C. in a shaker. The buffer and PEG solutions are changed daily and different assays are performed on the solution to determine the released 40-O-(2-hydroxyethyl)-rapamycin concentrations. Such assays can show a stable release of 40-O-(2-hydroxyethyl)-rapamycin from coated stents for more than 45 days. By the term “stable release of 40-O-(2-hydroxyethyl)-rapamycin” is meant less than 10% of variation of the drug release. Controlled release techniques used by a person skilled in the art allow an unexpected easy adaptation of the required drug release rate. Thus, by selecting appropriate amounts of reactants in the coating mixture it is possible to easily control the bioeffectiveness of the rapamycin or rapamycin derivastive coated stents.

The mark [5] stands for this setting: oral gavage, loading 1.5 mg/kg then 0.75 mg/kg/day to day 27, 28 days post-stenting, P<0.03.

The record followed here is patent US20090036352A1, “DRUG DELIVERY SYSTEMS FOR THE PREVENTION AND TREATMENT OF VASCULAR DISEASES COMPRISING RAPAMYCIN AND DERIVATIVES THEREOF” (priority 2002, published 2009).

Take `CO[C@H]1C[C@@H]2CC[C@@H](C)[C@@](O)(O2)C(=O)C(=O)N2CCCC[C@H]2C(=O)O[C@H]([C@H](C)C[C@@H]2CC[C@@H](OCCO)[C@H](OC)C2)CC(=O)[C@H](C)/C=C(\C)[C@@H](O)[C@@H](OC)C(=O)[C@H](C)C[C@H](C)/C=C/C=C/C=C/1C` [40-O-(2-hydroxyethyl)-rapamycin]: in data set [1] (oral daily dosing from 3 days prior to surgery for 31 days, 0.5 to 2.0 mg/kg), the “neointimal lesion formation at 28 days following balloon injury” value was “significantly reduce neointimal lesion formation”. Also, the “percent inhibition of neointimal lesion formation” value in data set [1] (0.5 mg/kg) worked out at 31%. Besides, the “percent inhibition of neointimal lesion formation” value in data set [1] (2.0 mg/kg) amounted to 39%. The “histology of the intima of stented arterial segments” value in data set [2] (majority of arterial segments, 28 days post-stenting) is reported as “the intima is well healed”. For the same compound, the “endothelialization of stented arteries (scanning electron microscopic analysis)” value in data set [2] (n=4 arteries, 28 days post-stenting) came to 84%. Also, the “increase in lumen area” value in data set [2] (oral gavage, loading 1.5 mg/kg then 0.75 mg/kg/day to day 27, 28 days post-stenting) is 32%. Moreover, in data set [2] (setting [5]), the “reduction in neointimal area” value was determined as 24%, the “reduction in neointimal thickness” value worked out at 40% and the “reduction in percent arterial stenosis” value is recorded as 26%. Further, the “neointimal lesion formation at 14 days post ballooning” value in data set [3] was “reduces neointimal lesion formation”. In the data set on dialysis patients, the “prevention or reduction of vascular access dysfunction” value is “demonstrate the efficacy”. In data set [4], the “duration of stable release from coated stents” value is on record as “more than 45 days”.
